Target: T1, PI3K (Homo sapiens, UniProt O00329)
T1 construct: purchased Millipore (Bedford, Mass.)
Assay: PI3K enzyme assays (at least one assay described herein)
Type: biochemical
Conditions: according to at least one assay described herein; assay not specified
Excerpt: PI3-Kinase luminescent assay kit including lipid kinase substrate, D-myo-phosphatidylinositol 4,5-bisphosphate (PtdIns(4,5)P2)D (+)-sn-1,2-di-O-octanoylglyceryl, 3-O-phospho linked (PIP2), biotinylated I(1,3,4,5)P4, PI(3,4,5)P3 Detector Protein is purchased from Echelon Biosciences (Salt Lake City, Utah). AlphaScreen™ GST Detection Kit including donor and acceptor beads was purchased from PerkinElmer Life Sciences (Waltham, Mass.). PI3Kδ (p110δ/p85α) is purchased from Millipore (Bedford, Mass.). ATP, MgCl2, DTT, EDTA, HEPES and CHAPS are purchased from Sigma-Aldrich (St. Louis, Mo.).
The kinase reaction are conducted in 384-well REMP plate from Thermo Fisher Scientific in a final volume of 40 μL. Inhibitors are first diluted serially in DMSO and added to the plate wells before the addition of other reaction components. The final concentration of DMSO in the assay is 2%. The PI3K assays are carried out at room temperature in 50 mM HEPES, pH 7.4, 5 mM MgCl2, 50 mM NaCl, 5 mM DTT and CHAPS 0.04%. […] The activity of the product is determined on Fusion-alpha microplate reader (Perkin-Elmer). […]
The kinase reactions are conducted in clear-bottom 96-well plate from Thermo Fisher Scientific in a final volume of 24 μL. […] After the plate sealing, the radioactivity of the product is determined by scintillation counting on Topcount (Perkin-Elmer). […]

T1 sequence (O00329 whole entry): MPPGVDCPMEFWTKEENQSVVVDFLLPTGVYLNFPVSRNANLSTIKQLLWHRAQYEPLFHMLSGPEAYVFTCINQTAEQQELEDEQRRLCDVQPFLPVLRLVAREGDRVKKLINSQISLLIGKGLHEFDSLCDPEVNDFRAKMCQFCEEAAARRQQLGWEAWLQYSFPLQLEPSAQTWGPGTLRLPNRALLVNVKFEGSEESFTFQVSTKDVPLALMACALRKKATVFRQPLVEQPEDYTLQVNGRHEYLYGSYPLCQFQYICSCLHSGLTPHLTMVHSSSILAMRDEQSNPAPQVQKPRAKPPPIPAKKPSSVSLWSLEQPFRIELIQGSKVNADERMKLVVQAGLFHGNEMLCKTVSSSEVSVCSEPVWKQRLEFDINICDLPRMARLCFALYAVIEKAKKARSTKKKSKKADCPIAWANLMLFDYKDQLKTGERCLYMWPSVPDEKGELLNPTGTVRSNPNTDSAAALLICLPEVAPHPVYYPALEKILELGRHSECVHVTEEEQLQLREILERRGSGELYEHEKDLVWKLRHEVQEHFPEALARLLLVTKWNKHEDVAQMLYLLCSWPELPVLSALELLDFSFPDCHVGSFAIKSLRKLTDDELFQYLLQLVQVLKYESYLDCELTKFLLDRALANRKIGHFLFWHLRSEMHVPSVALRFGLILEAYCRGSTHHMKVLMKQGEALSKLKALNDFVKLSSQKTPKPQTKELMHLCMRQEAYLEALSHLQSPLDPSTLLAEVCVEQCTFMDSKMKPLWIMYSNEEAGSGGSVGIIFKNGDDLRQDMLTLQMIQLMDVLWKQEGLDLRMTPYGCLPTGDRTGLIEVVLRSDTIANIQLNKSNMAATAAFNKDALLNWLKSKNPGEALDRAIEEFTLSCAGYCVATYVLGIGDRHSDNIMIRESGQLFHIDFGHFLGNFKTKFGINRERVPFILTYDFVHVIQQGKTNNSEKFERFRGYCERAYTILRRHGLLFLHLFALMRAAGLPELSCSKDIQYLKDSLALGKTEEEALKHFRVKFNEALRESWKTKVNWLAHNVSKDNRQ
T1 sequence (P27986 whole entry partner): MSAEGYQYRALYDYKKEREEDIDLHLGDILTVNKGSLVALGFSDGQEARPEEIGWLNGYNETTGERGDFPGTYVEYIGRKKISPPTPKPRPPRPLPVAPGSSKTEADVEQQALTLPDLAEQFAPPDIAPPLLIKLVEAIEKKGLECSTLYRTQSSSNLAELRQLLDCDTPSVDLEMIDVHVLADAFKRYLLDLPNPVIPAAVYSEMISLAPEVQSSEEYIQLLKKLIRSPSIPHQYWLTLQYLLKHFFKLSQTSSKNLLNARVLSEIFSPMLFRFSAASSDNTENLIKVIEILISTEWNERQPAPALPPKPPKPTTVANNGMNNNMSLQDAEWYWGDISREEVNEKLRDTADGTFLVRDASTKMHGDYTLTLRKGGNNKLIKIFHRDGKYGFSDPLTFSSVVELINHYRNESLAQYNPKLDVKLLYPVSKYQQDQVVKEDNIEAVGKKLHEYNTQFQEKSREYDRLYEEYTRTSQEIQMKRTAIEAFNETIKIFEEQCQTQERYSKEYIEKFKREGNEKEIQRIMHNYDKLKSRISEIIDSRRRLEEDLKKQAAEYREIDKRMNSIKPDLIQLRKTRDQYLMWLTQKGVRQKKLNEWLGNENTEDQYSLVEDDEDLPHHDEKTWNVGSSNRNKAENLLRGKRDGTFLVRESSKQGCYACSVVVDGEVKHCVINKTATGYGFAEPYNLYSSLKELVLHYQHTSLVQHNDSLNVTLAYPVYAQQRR

- PI3K inhibition (qualitative statement): found to be PI3K inhibitors
SMILES: CCOc1c([C@H](C)n2nc(C)c3c(N)ncnc32)cc(Cl)c(F)c1[C@@H]1CNC(=O)O1 [compound of Formula I, (R)-5-(3-((S)-1-(4-amino-3-methyl-1H-pyrazolo[3,4-d]pyrimidin-1-yl)ethyl)-5-chloro-2-ethoxy-6-fluorophenyl)oxazolidin-2-one]
